SMILES strings stand for the structures.

PRMT5/MEP50 protein complex, sequence (O14744 other isoform, or with tags, fused parts or gaps): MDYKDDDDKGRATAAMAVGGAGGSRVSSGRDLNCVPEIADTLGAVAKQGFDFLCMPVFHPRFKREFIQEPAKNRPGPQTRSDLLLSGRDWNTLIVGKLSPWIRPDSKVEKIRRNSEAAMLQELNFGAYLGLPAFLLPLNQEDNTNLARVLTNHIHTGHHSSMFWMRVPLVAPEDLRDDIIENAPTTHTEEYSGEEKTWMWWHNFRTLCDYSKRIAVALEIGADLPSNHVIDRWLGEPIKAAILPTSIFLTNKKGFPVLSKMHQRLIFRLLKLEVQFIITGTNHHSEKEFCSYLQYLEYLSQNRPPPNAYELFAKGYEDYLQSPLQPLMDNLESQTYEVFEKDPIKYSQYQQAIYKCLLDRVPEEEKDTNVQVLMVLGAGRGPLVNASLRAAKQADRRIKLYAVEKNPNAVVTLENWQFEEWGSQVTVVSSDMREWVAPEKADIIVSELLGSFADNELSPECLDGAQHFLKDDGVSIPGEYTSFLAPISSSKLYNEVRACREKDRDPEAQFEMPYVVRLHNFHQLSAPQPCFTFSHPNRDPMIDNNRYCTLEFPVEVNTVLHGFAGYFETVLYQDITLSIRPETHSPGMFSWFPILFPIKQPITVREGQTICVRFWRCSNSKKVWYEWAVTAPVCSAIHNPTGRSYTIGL
PRMT5/MEP50 protein complex, sequence (Q9BQA1 whole entry partner): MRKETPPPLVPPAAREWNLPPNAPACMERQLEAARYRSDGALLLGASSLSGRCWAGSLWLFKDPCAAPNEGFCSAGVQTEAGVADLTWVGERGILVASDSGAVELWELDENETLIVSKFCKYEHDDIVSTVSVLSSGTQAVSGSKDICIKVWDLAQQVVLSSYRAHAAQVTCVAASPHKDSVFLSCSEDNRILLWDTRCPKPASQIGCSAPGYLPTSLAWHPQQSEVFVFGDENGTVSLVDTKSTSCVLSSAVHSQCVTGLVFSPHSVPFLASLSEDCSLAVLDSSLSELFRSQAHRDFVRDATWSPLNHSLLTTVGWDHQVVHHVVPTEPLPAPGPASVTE

This experiment concerns the target PRMT5/MEP50 protein complex (Homo sapiens (Human), UniProt O14744). The experiment can be described thus: PRMT5 biochemical assay (3H-SAM methylation of H4(1-21) peptide, filter plate scintillation counting). As to conditions: PRMT5 enzyme inhibition; 10 nM PRMT5/MEP50 complex, 200 nM H4(1-21) peptide, 1 uM SAM, 25 minute incubation at room temperature. The procedure:
Following dilution, 1 ul was added to an empty 96-well microtiter plate. PRMT5/MEP50 protein complex was combined with H4(1-21) peptide ([…]) in PRMT5 assay buffer (50 mM Tris pH 8.5, 50 mM NaCl, 5 mM MgCl2, 1 mM EDTA, 1 mM TCEP) and 44 ul was added to the microtiter plate containing compound. S-Adenosyl-L-methionine (SAM) was prepared by combining ^3H labelled SAM with unlabelled SAM in PRMT5 assay buffer such that the final SAM concentration was 10 uM and the specific activity was 0.2 uCi/ul. The reaction was initiated by adding 5 ul of SAM stock to the microtiter plate. The final reaction conditions were 10 nM PRMT5/MEP50 complex, 200 nM peptide and 1 uM SAM. Following a 25 minute incubation at room temperature, the reaction was stopped with the addition of 100 uL of 20% TCA. The 3H-peptide product was captured using a 96-well filter plate (MSIPN4B, Millipore) and washed 5 times with PBS buffer. Scintillation fluid (100 ul) was added to the dried filter plate and counted in a liquid scintillation counter. IC50 values were determined by fitting the data to the standard 4-parameter dose response equation using Pfizer proprietary software.
In the final construct PRMT5 ORF was under control of polyhedrin promoter (polH) while MEP50 ORF was under control of p10 promoter.
Viruses were generated using standard Bac-to-Bac viral generation protocols (Life Technologies) and amplified to high-titer passage two (P2) stocks. Protein over expression was conducted in exponentially growing Sf21 cells infected at 2×106 with P2 viral stock at MOI=1 of PRMT5-Mep50 dual construct virus and Mep50 construct virus at 1:1 ratio. The co-expression protocol was used to supplement additional Mep50 for FlagPRMT5-Mep50 heterodimer formation. Cells were harvested at 72 h post infection by centrifugation and frozen pellet was stored at −80° C.
FlagPRMT5-Mep50 complex was purified from cell lysate using Flag affinity chromatography. Cell were lyzed in 50 mM Tris 7.5, 200 mM NaCl, 10% glycerol, 0.25 mM TCEP supplemented with EDTA-free protease inhibitor cocktail (Roche). 1.5 ml of lysis buffer was added per 1 g of frozen pellet. The clarified lysate was obtained by centrifugation of cell lysate at 10,000 g for 1 h at 4 C. 5 ml of Anti-FLAG M2 Agarose (Sigma) […] was added to the clarified lysate to isolate FlagPRMT5-Mep50. Following batch binding for 3 h at 4 C, Flag resin bound to FlagPRMT5-Mep50 washed with 20 column volumes (CV) of 50 mM Tris 7.5, 200 mM NaCl, 10% glycerol, 0.25 mM TCEP followed by elution of FlagPRMT5-Mep50 complex using 3 CV of 50 mM Tris 7.5, 200 mM NaCl, 10% glycerol, 0.25 mM TCEP supplemented with 200 ug/ml of FLAG Peptide ([…]). […] Peak fractions containing FlagPRMT5-Mep50 complex were concentrated to 1.6 mg/ml, flash frozen in small aliquots using liquid nitrogen and stored at −80° C.
With `Cc1ncnc2c1ccn2[C@@H]1O[C@H]([C@H](O)CCc2ccccc2)[C@@H](O)[C@H]1O` [Example 30, (2R,3S,4R,5R)-2-((R)-1-hydroxy-3-phenylpropyl)-5-(4-methyl-7H-pyrrolo[2,3-d]pyrimidin-7-yl)tetrahydrofuran-3,4-diol], the IC50 amounted to 752 nM.
The compound `CCC[C@H](O)[C@H]1O[C@@H](n2cnc3c(N)ncnc32)[C@H](O)[C@@H]1O` [Example 6, (2R,3R,4S,5R)-2-(6-amino-9H-purin-9-yl)-5-((S)-1-hydroxybutyl)tetrahydrofuran-3,4-diol] came in with a concentration for half-maximal inhibition (IC50) of 21100 nM.
Compound `OCc1ncnc2c1ccn2[C@@H]1O[C@H]([C@H](O)c2ccc(F)c(F)c2)[C@@H](O)[C@H]1O` [Example 108, (2R,3S,4R,5R)-2-((R)-(3,4-difluorophenyl)(hydroxy)methyl)-5-(4-(hydroxymethyl)-7H-pyrrolo[2,3-d]pyrimidin-7-yl)tetrahydrofuran-3,4-diol] gave an IC50 of 50 nM. This IC50 is about 420-fold lower than that of the compound before.
In the case of `Cc1ncnc2c1ccn2[C@@H]1O[C@@H]([C@@H](C)O)[C@@H](O)[C@H]1O` [Example 70, (2S,3S,4R,5R)-2-((R)-1-hydroxyethyl)-5-(4-methyl-7H-pyrrolo[2,3-d]pyrimidin-7-yl)tetrahydrofuran-3,4-diol], 50 nM corresponded to half-maximal inhibition (IC50).
`Cc1ncnc2c1ccn2[C@@H]1O[C@H]([C@H](O)c2ccco2)[C@@H](O)[C@H]1O` [Example 54, (2S,3S,4R,5R)-2-((S)-furan-2-yl(hydroxy)methyl)-5-(4-methyl-7H-pyrrolo[2,3-d]pyrimidin-7-yl)tetrahydrofuran-3,4-diol] displayed an IC50 of 24 nM.
The same measure for `Cc1ncnc2c1ccn2[C@@H]1O[C@H](C(O)CS(=O)(=O)c2ccccc2)[C@@H](O)[C@H]1O` (stereo in doubt) [Example 24, (2S,3S,4R,5R)-2-((R)-1-hydroxy-2-(phenylsulfonyl)ethyl)-5-(4-methyl-7H-pyrrolo[2,3-d]pyrimidin-7-yl)tetrahydrofuran-3,4-diol]: 30800 nM; for `C[C@@](O)(c1ccc(F)c(F)c1)[C@H]1O[C@@H](n2ccc3c(N)ncnc32)[C@H](O)[C@@H]1O` [Example 103, (2R,3R,4S,5S)-2-(4-amino-7H-pyrrolo[2,3-d]pyrimidin-7-yl)-5-((R)-1-(3,4-difluorophenyl)-1-hydroxyethyl)tetrahydrofuran-3,4-diol]: 2 nM.
As for `Cc1ncnc2c1ccn2[C@@H]1O[C@@H](C(O)CO)[C@@H](O)[C@H]1O` (stereo partly drawn) [Example 79, (2S,3S,4R,5R)-2-(1,2-dihydroxyethyl)-5-(4-methyl-7H-pyrrolo[2,3-d]pyrimidin-7-yl)tetrahydrofuran-3,4-diol], the figure is 5230 nM; as for `Cc1ncnc2c1ccn2[C@@H]1O[C@H]([C@H](O)c2ccc3cnn(C)c3c2)[C@@H](O)[C@H]1O` [Example 15, (2R,3S,4R,5R)-2-((R)-hydroxy(1-methyl-1H-indazol-6-yl)methyl)-5-(4-methyl-7H-pyrrolo[2,3-d]pyrimidin-7-yl)tetrahydrofuran-3,4-diol], 39 nM; as for `Cc1ncnc2c1ccn2[C@@H]1O[C@H]([C@@H](O)CCc2ccccc2)[C@@H](O)[C@H]1O` [Example 31, (2R,3S,4R,5R)-2-((S)-1-hydroxy-3-phenylpropyl)-5-(4-methyl-7H-pyrrolo[2,3-d]pyrimidin-7-yl)tetrahydrofuran-3,4-diol], 61700 nM.
As to `Cc1ncnc2c1ccn2[C@@H]1O[C@@H](c2ccn[nH]2)[C@@H](O)[C@H]1O` [Example 72, (2R,3R,4S,5S)-2-(4-methyl-7H-pyrrolo[2,3-d]pyrimidin-7-yl)-5-(1H-pyrazol-5-yl)tetrahydrofuran-3,4-diol], the IC50 turned out to be 2030 nM.
Consider `Cc1ncnc2c1ccn2[C@@H]1O[C@H]([C@H](O)C2CCC2)[C@@H](O)[C@H]1O` [Example 52, (2R,3S,4R,5R)-2-((R)-cyclobutyl(hydroxy)methyl)-5-(4-methyl-7H-pyrrolo[2,3-d]pyrimidin-7-yl)tetrahydrofuran-3,4-diol], for which the IC50 is 1260 nM. Compared with the last compound, the IC50 is about 1.6-fold lower.
The same measure for `Cc1ncnc2c1ccn2[C@@H]1O[C@H]([C@H](O)C(C)C)[C@@H](O)[C@H]1O` [Example 48, (2R,3S,4R,5R)-2-((R)-1-hydroxy-2-methylpropyl)-5-(4-methyl-7H-pyrrolo[2,3-d]pyrimidin-7-yl)tetrahydrofuran-3,4-diol]: 517 nM; for `Cc1ncnc2c1ccn2[C@@H]1O[C@H]([C@@H](O)C(C)C)[C@@H](O)[C@H]1O` [Example 49, (2R,3S,4R,5R)-2-((S)-1-hydroxy-2-methylpropyl)-5-(4-methyl-7H-pyrrolo[2,3-d]pyrimidin-7-yl)tetrahydrofuran-3,4-diol]: 37500 nM; for `Cc1ncnc2c1ccn2[C@@H]1O[C@H]([C@H](O)c2ccc(F)c(C(F)(F)F)c2)[C@@H](O)[C@H]1O` [Example 18, (2R,3S,4R,5R)-2-((R)-(4-fluoro-3-(trifluoromethyl)phenyl)(hydroxy)methyl)-5-(4-methyl-7H-pyrrolo[2,3-d]pyrimidin-7-yl)tetrahydrofuran-3,4-diol]: 4 nM.
Compound `Cc1ncnc2c1ccn2[C@@H]1OC(C(F)(F)c2ccc(F)cc2)[C@@H](O)[C@H]1O` (stereo partly drawn) [Example 59, (3S,4R,5R)-2-(difluoro(4-fluorophenyl)methyl)-5-(4-methyl-7H-pyrrolo[2,3-d]pyrimidin-7-yl)tetrahydrofuran-3,4-diol] registered a half-inhibitory concentration (IC50) of 491 nM.
Regarding `Cc1ncnc2c1ccn2[C@@H]1O[C@@H](c2cnco2)[C@@H](O)[C@H]1O` [Example 69, (2R,3R,4S,5R)-2-(4-methyl-7H-pyrrolo[2,3-d]pyrimidin-7-yl)-5-(oxazol-5-yl)tetrahydrofuran-3,4-diol], the half-inhibitory concentration (IC50) was 1050 nM. This IC50 is about 2.1-fold higher than that of the compound before.
As for `O[C@@H]1[C@H](O)[C@@H]([C@H](O)c2ccc(F)c(F)c2)O[C@H]1n1ccc2c(CF)ncnc21` [Example 107, (2R,3S,4R,5R)-2-((R)-(3,4-difluorophenyl)(hydroxy)methyl)-5-(4-(fluoromethyl)-7H-pyrrolo[2,3-d]pyrimidin-7-yl)tetrahydrofuran-3,4-diol], the figure is 7 nM.
Consider `Cc1ncnc2c1ccn2[C@@H]1O[C@H](Cc2ccc(F)cc2)[C@@H](O)[C@H]1O` [Example 100, (2R,3S,4R,5R)-2-(4-fluorobenzyl)-5-(4-methyl-7H-pyrrolo[2,3-d]pyrimidin-7-yl)tetrahydrofuran-3,4-diol], for which half-maximal inhibition (IC50) was put at 90 nM. This IC50 lies about 13-fold higher than the previous one.
The same measure for `Cc1ncnc2c1ccn2[C@@H]1O[C@H]([C@H](O)c2ccccc2S(C)(=O)=O)[C@@H](O)[C@H]1O` [Example 81]: 91700 nM.
In turn, `Cc1ncnc2c1ccn2[C@@H]1O[C@H]([C@H](O)c2ccnc(N(C)C)c2)[C@@H](O)[C@H]1O` [Example 14, (2R,3S,4R,5R)-2-((R)-(2-(dimethylamino)pyridin-4-yl)(hydroxy)methyl)-5-(4-methyl-7H-pyrrolo[2,3-d]pyrimidin-7-yl)tetrahydrofuran-3,4-diol] registered a 50% inhibitory concentration (IC50) of 17 nM.
For `Cc1ncnc2c1ccn2[C@@H]1O[C@H]([C@H](C)O)[C@@H](O)[C@H]1O` [Example 45, (2R,3S,4R,5R)-2-((S)-1-hydroxyethyl)-5-(4-methyl-7H-pyrrolo[2,3-d]pyrimidin-7-yl)tetrahydrofuran-3,4-diol], half-maximal inhibition (IC50) was put at 1740 nM.
On to `Cc1ncnc2c1ccn2[C@@H]1O[C@H]([C@H](O)C2CC2)[C@@H](O)[C@H]1O` [Example 46, (2R,3S,4R,5R)-2-((R)-cyclopropyl(hydroxy)methyl)-5-(4-methyl-7H-pyrrolo[2,3-d]pyrimidin-7-yl)tetrahydrofuran-3,4-diol], for which the IC50 stood at 367 nM.
On to `Cc1ncnc2c1ccn2[C@@H]1O[C@@H]([C@H](O)c2ccccc2)[C@@H](O)[C@H]1O` [Example 74, (2S,3S,4R,5R)-2-((R)-hydroxy(phenyl)methyl)-5-(4-methyl-7H-pyrrolo[2,3-d]pyrimidin-7-yl)tetrahydrofuran-3,4-diol], for which the 50% inhibitory concentration (IC50) worked out at 3140 nM. This IC50 is about 8.6-fold higher than that of the compound before.
Turning to `Cc1ncnc2c1ccn2[C@@H]1O[C@@H](CO)[C@@H](O)[C@H]1O` [Example 71, (2S,3S,4R,5R)-2-(hydroxymethyl)-5-(4-methyl-7H-pyrrolo[2,3-d]pyrimidin-7-yl)tetrahydrofuran-3,4-diol], the IC50 was found to be 52 nM.

(Values after patent US10428104B2, “Substituted nucleoside derivatives useful as anticancer agents” (Pfizer Inc., priority 2015, dated 2019).)
